Reference: patent US20220339143A1, “TAK-925 FOR USE IN TREATING NARCOLEPSY” (Takeda Pharmaceutical Company Limited, priority 2019, published 2022)
“Also recorded” adds a separate entry of the source. Like-named read-outs stand apart in the source and are kept apart here.

Assay: Single dose PK in patients with narcolepsy (Cohorts 5, 6 and 7), plasma
Type: in vivo, human
Details: for AUC(0-inf) / AUC(0-t) / Cmax / AUC / concentration at 9 h / Tmax / Vd / clearance: human, plasma, intravenous; for AUC: read-out: AUC24; for concentration at 9 h: read-out: Ceoi; for clearance: read-out: CL (converted)
Protocol: This study investigates (i) the safety and tolerability of Compound A (methyl (2R,3S)-3-((methylsulfonyl)amino)-2-(((cis-4-phenylcyclohexyl)oxy)methyl)piperidine-1-carboxylate) when a single dose given as a 9 hour continuous IV infusion is administered to healthy adults, healthy elderly subjects and patients with narcolepsy type 1 (NT1); (ii) the pharmacokinetics of Compound A when a single dose given as a 9 hour continuous IV infusion is administered to healthy adults, healthy elderly subjects and patients with narcolepsy type 1; and (iii) the pharmacodynamics (PD) effects of Compound A, primarily by evaluation of the sleep latency on MWT when a single dose given as a 9 hour continuous IV infusion is administered to patients with narcolepsy type 1.
In Part 2, NT1 patients received a single dose of Compound A or placebo administered as a continuous IV infusion over a 9-hour period during the day. A 40-minute Maintenance of Wakefulness Test (MWT) was conducted 4 times during the continuous IV infusion to assess effects on wakefulness in soporific conditions at 2, 4, 6 and 8 hours from start of infusion. Three cohorts of patients were enrolled (n=14 total).
Pharmacokinetics: Concentrations of Compound A in plasma, and CSF, and pharmacokinetics parameters.
On average, the time to reach the plateau appeared to be approximately 4 hours after the start of infusion. […] After switching off the IV infusion, Compound A plasma concentrations declined rapidly and in a biphasic manner with a mean terminal disposition phase t1/2z ranging approximately from 3.5 to 4.1 hours across the doses.

[1] = Cmpd A 5 mg, Mean, Cohort 5, 6, 7
[2] = Cmpd A 5 mg, Median, Cohort 5, 6, 7
[3] = Cmpd A 11.2 mg, Mean, Cohort 5, 6, 7
[4] = Cmpd A 11.2 mg, Median, Cohort 5, 6, 7
[5] = Cmpd A 44.8 mg, Mean, Cohort 5, 6, 7
[6] = Cmpd A 44.8 mg, Median, Cohort 5, 6, 7
[7] = 5 mg, Cmpd A 5 mg, Geo Mean, Cohort 5, 6, 7
[8] = 5 mg, Cmpd A 5 mg, Mean, Cohort 5, 6, 7
[9] = 5 mg, Cmpd A 5 mg, Median, Cohort 5, 6, 7
[10] = 11.2 mg, Cmpd A 11.2 mg, Geo Mean, Cohort 5, 6, 7
[11] = 11.2 mg, Cmpd A 11.2 mg, Mean, Cohort 5, 6, 7
[12] = 11.2 mg, Cmpd A 11.2 mg, Median, Cohort 5, 6, 7

What does the source list for COC(=O)N1CCC[C@H](NS(C)(=O)=O)[C@@H]1CO[C@H]1CC[C@@H](c2ccccc2)CC1 [Compound A, methyl (2R,3S)-3-((methylsulfonyl)amino)-2-(((cis-4-phenylcyclohexyl)oxy)methyl)piperidine-1-carboxylate]?
AUCinf D [1]: 17.88 ng·h/mL/mg; CL [1]: 57.05 L/h; Cmax D [1]: 2.050 ng/mL/mg; t½z [1]: 3.465 h; AUCinf D [2]: 18.20 ng·h/mL/mg; Cmax D [2]: 2.000 ng/mL/mg; Vz [2]: 284.5 L; t½z [2]: 3.380 h; AUCinf D [3]: 17.95 ng·h/mL/mg; Cmax D [3]: 1.963 ng/mL/mg; Vss [3]: 114.1 L; Vz [3]: 316.8 L; t½z [3]: 3.923 h; AUCinf D [4]: 18.05 ng·h/mL/mg; Cmax D [4]: 1.990 ng/mL/mg; Vss [4]: 113.5 L; Vz [4]: 336.5 L; t½z [4]: 4.020 h; AUCinf D [5]: 21.45 ng·h/mL/mg; Cmax D [5]: 2.195 ng/mL/mg; t½z [5]: 4.130 h; AUCinf D [6]: 20.80 ng·h/mL/mg; Cmax D [6]: 2.170 ng/mL/mg; t½z [6]: 3.885 h; systemic exposures and clearance in NT1 patients vs healthy adults (IV administration): consistent with those observed in healthy adults; also recorded: comparable with those observed in healthy adults; dose proportionality of mean plasma systemic exposure (doses of 5 to 44.8 mg, NT1 patients): increased approximately dose proportionally; AUC(0-inf) [7]: 88.5 ng·h/mL; AUC(0-t) [7]: 86.2 ng·h/mL; Cmax [7]: 10.1 ng/mL; AUC [7]: 88 ng·h/mL; concentration at 9 h [7]: 9.65 ng/mL; AUC(0-inf) [8]: 89.3 ng·h/mL; AUC(0-t) [8]: 87.2 ng·h/mL; Cmax [8]: 10.2 ng/mL; Tmax [8]: 8 h; AUC [8]: 88.8 ng·h/mL; concentration at 9 h [8]: 9.71 ng/mL; Vd (5 mg, Cmpd A 5 mg, Mean, Cohort 5, 6, 7, read-out: Vss): 112 L; Vd (5 mg, Cmpd A 5 mg, Mean, Cohort 5, 6, 7, read-out: Vz): 282 L; AUC(0-inf) [9]: 91.1 ng·h/mL; AUC(0-t) [9]: 89.2 ng·h/mL; Cmax [9]: 9.99 ng/mL; Tmax [9]: 9 h; AUC [9]: 90.8 ng·h/mL; clearance [9]: 915 mL/min; concentration at 9 h [9]: 9.99 ng/mL; Vd (5 mg, Cmpd A 5 mg, Median, Cohort 5, 6, 7, read-out: Vss): 110 L; AUC(0-inf) [10]: 201 ng·h/mL; AUC(0-t) [10]: 199 ng·h/mL; Cmax [10]: 21.9 ng/mL; AUC [10]: 199 ng·h/mL; concentration at 9 h [10]: 21.2 ng/mL; AUC(0-inf) [11]: 201 ng·h/mL; AUC(0-t) [11]: 199 ng·h/mL; Cmax [11]: 22 ng/mL; Tmax [11]: 7.75 h; AUC [11]: 199 ng·h/mL; clearance [11]: 932 mL/min; concentration at 9 h [11]: 21.2 ng/mL; AUC(0-inf) [12]: 202 ng·h/mL; AUC(0-t) [12]: 200 ng·h/mL
